In patent US9766197B2, “Methods for generating pH/ionic concentration gradient near electrode surfaces for modulating biomolecular interactions, and bubble detection using electrodes” (Robert Bosch GmbH, priority 2014, dated 2017):
One block for each molecule: values may come before it.

How the values were obtained:
[1] = Electrochemical modulation of pH at ITO working electrode monitored by GFP fluorescence intensity; type: physicochemical
Excerpt: After current was turned off, the pH recovered to neutral value within 50 seconds.
Electrode material used: The electrode material was indium tin oxide. The fluorescent protein used is GFP immobilized on a glass substrate which includes an array of electrodes. The GFP is applied as spots, each spot covers an area that overlaps with one electrode and an area that is not overlapping with an electrode.
The pH change at the surface of ITO working electrode is generated via current-driven oxidation of a redox active molecule, 2-methyl-1,4-dihydroquinone, in diluted phosphate buffer (pH=7.4) containing 0.1M Na2SO4. […] FIG. 10 is used as calibration curve to assess the pH values.

[2] = Electro-oxidation of ascorbic acid at indium tin oxide electrode (cyclic voltammetry); type: physicochemical; details: Indium tin oxide vs Ag/AgCl reference electrode
Excerpt: FIG. 7B: Cyclic voltammetric study of the oxidation of Ascorbic acid test in ITO electrodes.
(§1) Electrode material used: The electrode material was indium tin oxide. This is a semiconducting electrode surface with very large potential window in an aqueous solution.
Oxidation of ascorbic acid at the electrode surfaces produced H^+ ions and changed the electrode surface pH to a more acidic state: AH2→A+2H^++2e^−, where AH2 is ascorbic acid ([…]) (as shown in FIG. 5). The electrode potential at which it oxidizes was less than 0.5V for Indium tin oxide material vs Ag/AgCl reference electrode (as shown in FIG. 7). This potential was less than the voltages needed for the oxygen evolution reaction in aqueous solution. The ascorbic acid also acted as a sacrificial species to prevent electrochemical degradation of the surface chemistry.

[3] = target: Green Fluorescent Protein (GFP) (Aequorea victoria, UniProt P42212); assay: Fluorescence intensity of GFP after incubation with benzoquinones (protein stability); type: biochemical; details: 0.5 mM benzoquinone, phosphate buffered saline, 30 min
Excerpt: Para-benzoquinones and ortho-benzoquinones (compounds 2, 4, 6, and 9 in FIG. 31) are susceptible to nucleophilic attack at the double bond of the ring (positions 2, 3, 5 and 6 in structure 2 of FIG. 31, positions 3, 4, 5 and 6 in structure 4 of FIG. 31, and positions 2 and 3 in structure 6 of FIG. 31). Introducing substituents at some or all of those positions can mitigate the problem of nucleophilic attack. For example, 1,4-benzoquinone (structure 2 in FIG. 31, where R1, R2, R3 and R4 are H) undergoes Michael addition reaction with amino groups of proteins (Loomis et al., Phytochemistry, 5, 423, (1966) and U.S. Pat. No. 6,753,312 B2). […] Fluorescence intensity of Green Fluorescent Protein (GFP) was measured after incubation with three different benzoquinones in phosphate buffered saline for 30 min (concentration of benzoquinones was 0.5 mM). The difference in fluorescence intensity indicates the varied effect that the different substitutions in benzoquinones have on the stability of GFP. Fluorescence intensity of GFP is indicative of its structural integrity. Losses in fluorescence intensity usually indicate loss of its tertiary structure (protein denaturation) (Yin D. X., Zhu L., Schimke R. T. Anal. Biochem. 1996, 235:195-201).

[4] = Electro-reduction of benzoquinone into hydroquinone to produce OH- ions; type: physicochemical
Excerpt: as §1
Reduction of benzoquinone (C6H4O2) into Hydroquinone (C6H6O2) can produce OH^− ions at −0.1V: BQ+2e^−+2H2O→HQ+2OH^− This reduction reaction increased the pH at the electrode interface.

SMILES: Cc1cc(O)ccc1O [2-methyl-1,4-dihydroquinone]
solution pH after current-driven oxidation ([1]; 50 microamps for 30 second, diluted phosphate buffer pH 7.4, 0.1M Na2SO4, ITO working electrode): 5.5 | time for pH to recover to neutral value after current was turned off ([1]; diluted phosphate buffer pH 7.4, 0.1M Na2SO4): ≤ 50 seconds

electrode potential at which it oxidizes [2]: less than 0.5 V
SMILES: O=C1O[C@H]([C@@H](O)CO)C(O)=C1O [ascorbic acid]

SMILES: O=C1C=CC(=O)C=C1 [unsubstituted benzoquinone, 1,4-benzoquinone]
loss in GFP fluorescence intensity after incubation [3]: 25% | potential of reduction producing OH- ions [4]: −0.1 V
